This data set is described as follows: Solubility of IPBC in Rhodiasolv DIB and PEG 300 (HPLC of supernatant). It counts as physicochemical. As to conditions: room temperature, after-stirred 12 h, supernatant by HPLC. The method, then:
Solubility of IPBC in Rhodiasolv DIB and PEG 300
The solvent was introduced as initial charge at room temperature, and IPBC was added until a sediment persisted. It was after-stirred for a further 12 h, the solid was centrifuged off and the remaining supernatant was analyzed by means of HPLC.

For the molecule `CCCCNC(=O)OCC#CI` [IPBC, 3-iodopropargyl butylcarbamate], the “solubility of IPBC in Rhodiasolv DIB” value came to 36.1 % by weight and the “solubility of IPBC in polyethylene glycol 300” value came to 44.9 % by weight.

(Values after patent publication US8231721B2, “Antifungal liquid formulations” (LANXESS Deutschland GmbH, priority 2008, dated 2012).)
